Data from paper PMC12579162, “Synthesized Depside Molecules Suppress the Progression of Colorectal Cancer by Binding VDAC1/PHB/MMP9 Being at the Crossroads of Stemness, Motility, Apoptosis, and Metabolism” (MedComm, 2025).

Experiments:
CRC cell lines = assay: Apoptosis / cell death analysis; type: cell-based, human
Experimental: (§1) Cells were cultured in a six‐well plate at the density of 2 × 10^5 cells/well until adherence. Cells were treated with DMSO or compound for 48 h. Apoptosis or cell cycle experiments were then performed. For apoptosis analysis, cells were harvested and washed with PBS, resuspended in 100 µL of 1× binding buffer followed by staining with 4 µL of Annexin V–FITC (BD, Biosciences, San Jose, CA, USA), and 8 µL of 50 µg/mL propidium iodide (PI; BD Biosciences, San Jose, CA, USA) for 30 min in the dark. For cell cycle analysis, cells were washed with FACS washing buffer, incubated with trypsin solution, followed by RNase A for 10 min at room temperature. Cells were centrifuged and pellets were collected and stained with 100 µL of 4 mg/mL PI (Sigma–Aldrich) for 2 h in the dark at 4°C. Cells were detected by flow cytometry on a CytoFLEX instrument (Beckman Coulter Life Sciences, Indianapolis, IN, USA).

[1] = system: CaCo2, DLD1, HT29, HCT116, and SW620 cells; assay: Cell cycle analysis by flow cytometry; type: cell-based, human; conditions: 10 µM, 48 h
Experimental: as §1

DLD1 cells = assay: MTT cell viability, DLD1; type: cell-based; conditions: Homo sapiens, DLD-1; 48 h, MTT assay
Experimental: (§2) Cells (3 × 10^3 cells/well) were seeded on a 96‐well plate, grown overnight, and then treated with compounds at indicated concentrations for 48 h. After incubation with MTT for 4 h at 37°C, cells were lysed with 150 µL of DMSO (Sigma–Aldrich, St. Louis, USA). Absorbance was measured at 570 nm on a microplate reader with the Gen5 software (v.2.03.1; BioTek, Winooski, VT, USA).

[2] = system: CSC221, DLD1, CaCo2, HT29, HCT116, and SW620 cells; assay: Seahorse XF Cell Mito Stress Test; type: cell-based, human; conditions: 5 µM, 48 h
Experimental: Seahorse XF96 extracellular flux analyzer (Agilent, Santa Clara, CA, USA) was used for glycolytic rate and cell mito stress test assays. Cells were seeded at 1 × 10^4 cells/well, incubated overnight in culture medium (2% FBS), and then treated with DMSO or compound for 48 h. The plated cells were twice washed and loaded (180 µL) with assay media enhanced with glutamine, sodium pyruvate, and glucose on the day of analysis. Before analysis, the cells were incubated for 1 h at 37°C in a non‐CO2 incubator. Then, cell mito stress, mito tox, or glycolytic rate assay was tested. Agilent Seahorse XF Mito Stress Test Kit was utilized in accordance with Agilent Seahorse's standard methodology. This test examines the OCR of cells directly, which provides important information on mitochondrial function. First, 1 µM oligomycin (inhibits ATP synthase) was injected. The second injection was FCCP (1 µM), an uncoupling agent that compresses the proton gradient and disturbs the mitochondrial membrane potential. Last injection with 0.5 µM Rotenone (Rot; a complex I inhibitor) + antimycin A (AA; a complex III inhibitor) was loaded for OCR analysis. Agilent Seahorse XF Glycolytic Rate Assay was utilized in accordance with Agilent Seahorse's standard methodology. […] The results were analyzed using the Wave software (Agilent).

CaCo2 cells = assay: MTT cell viability, CaCo2; type: cell-based; conditions: Homo sapiens, Caco-2; 48 h, MTT assay
Experimental: as §2

IC50 (DLD1 cells) | IC50 (CaCo2 cells) | SMILES | concentration with cell death ability (CRC cell lines) | cell-cycle distribution [1] | oxygen consumption rate (OCR) [2]
57.8 µM | 2.77 µM | COCCCOc1c(C)c(OC(=O)c2c(C)cc(OC)c(C)c2OC)cc(C)c1C(=O)OC [SB5, 4-(Methoxycarbonyl)-3-(3-methoxypropoxy)-2,5-dimethylphenyl 2,4-dimethoxy-3,6-dimethylbenzoate] | ~10 µM | induced Sub G1 and G2/M populations while G1 population decreased | dramatically suppresses the oxygen consumption rate (OCR)
4.08 µM | 8.74 µM | COCCOc1c(C)c(OC(=O)c2c(C)cc(OC)c(C)c2OC)cc(C)c1C(=O)OC [SB4, 4-(Methoxycarbonyl)-3-(2-methoxyethoxy)-2,5-dimethylphenyl 2,4-dimethoxy-3,6-dimethylbenzoate] | ~10 µM | induced Sub G1 and G2/M populations while G1 population decreased | dramatically suppresses the oxygen consumption rate (OCR)
